Laboratory results: patent EP0393604B1, “6,11-Dihydro-5H-pyrido(2,3-b)(1,5,)benzodiazepin-5-ones and thiones and their use in the prevention or treatment of AIDS” (priority 1989, dated 1990)
Read-outs that look alike come from different tables or passages of the source.

Legend:
[1] = target: T1, HIV-1 RT (Human immunodeficiency virus type 1 group M subtype B, UniProt P03367); test: Reverse Transcriptase (RT) Assay: inhibition of RNA-dependent DNA polymerase activity; format: biochemical; conditions: for inhibition at 10 µg/mL: read-out: RT Inhibition % @ 10µg/ml
T1 construct: Reverse transcriptase enzyme from the LAV strain of Human Immunodeficiency Virus (HIV-1) (1) was isolated from the bacterial strain JM109; made in house; host or cells: E. coli JM109, clone pBRTprt1+ in vector pIBI21, lac promoter, IPTG induction
From the text: Utilizing the Reverse Transcriptase (RT) Assay descibed below, compounds can be tested for their ability to inhibit the RNA-dependent DNA polymerase activity of HIV-1 RT. Certain specific compounds of formula I described in the Examples which appear below, were so tested. The above-described compounds of formula IA were also so tested.
Among the enzymes for which Human Immunodeficiency Virus (HIV-1) encodes is a reverse transcriptase (1), so-named because it transcribes a DNA copy from an RNA template. This activity can be quantitatively measured in a cell-free enzyme assay which has been previously described (2), and is based upon the observation that reverse transcriptase is able to use a synthetic template [poly r(C) primed with oligo d(G)] to transcribe a radio-labelled, acid-precipitable DNA strand utilizing ^3H-dGTP as a substrate.
Reverse transcriptase enzyme from the LAV strain of Human Immunodeficiency Virus (HIV-1) (1) was isolated from the bacterial strain JM109 (3) expressing the DNA clone pBRTprt1+ (2) which is under the control of the lac promoter in the expression vector pIBI21 (4). An overnight culture grown in 2XYT medium (37°C, 225 rpm) (5) supplemented with 100 µg/ml ampicillin for positive selection is inoculated at a 1:40 dilution into M9 medium supplemented with 10µg/ml thiamine, 0.5% casamino acids, and 50 µg/ml ampicillin (5). The culture is incubated (37°C, 225 rpm) until it reaches an OD540 of 0.3-0.4. At that time the repressor inhibitor IPTG (isopropyl b-D-thiogalactopyranoside) is added to 0.5mM and the mixture is incubated for 2 additional hours. Bacteria are pelleted, resuspended in a 50mM Tris, 0.6mM EDTA, 0.375M NaCl buffer and digested by the addition of lysozyme (1mg/ml) for 30 minutes on ice. The cells are lysed by the addition of 0.2% NP-40 and brought to 1M NaCl.
After removal of the insoluble debris by centrifugation, the protein is precipitated by the addition of 3 volumes of water-saturated ammonium sulfate. The enzyme is pelleted, resuspended in RT buffer (50mM Tris pH 7.5. 1mM EDTA, 5mM DTT, 0.1% NP-40, 0.1M NaCl, and 50% glycerol), and stored at -70°C for further use.
The 2X concentrated stock reaction mixture is aliquoted and stored at -20°C. The mixture is stable and thawed for use in each assay. This enzyme assay has been adapted to a 96 well microtiter plate system, and has been previously described (6). Tris buffer (50 mM, pH 7.4), vehicle (solvent diluted to match the compound dilution), or compounds in vehicle are dispensed into 96-well microtiter plates (10µl/well: 3 wells/compound). The HIV-1 RT enzyme is thawed and diluted in 50mM Tris pH 7.4 so that fifteen µl of diluted enzyme contain 0.001 Unit (one unit is that amount of enzyme to transform 1 micromole of substrate per minute at 25°C) and 15µl are dispensed per well. Twenty µl of 0.12 - 0.5M EDTA are added to the first three wells of the microtiter plate. EDTA chelates the Mg^++ present and prevents reverse transcription. This group serves as background polymerization which is subtracted from all other groups. Twenty-five ul of the 2X reaction mixture are added to all wells and the assay is allowed to incubate at room temperature for 60 minutes. The assay is terminated by precipitating the DNA in each well with 50µl of trichloracetic acid (TCA) (10% w/v) in sodium pyrophosphate (1% w/v). The microtiter plate is incubated for 15 minutes at 4°C and the precipitate is fixed onto #30 glass fiber paper (Schleicher & Schuell) using a Skatron semi-automatic harvester. The filters are then washed with additional TCA (5%) containing sodium pyrophosphate (1%), rinsed with aqueous ethanol (70%), dried, and transferred to scintillation vials (6). Each vial receives 2 mls of scintillation cocktail and is counted in a Beckman beta counter. […]

[2] = test system: H9 cell line; test: MTT Assay for Cellular Cytotoxicity; format: cell-based, human; conditions: H9 cells, five days incubation, unit inferred, 7200 min, read-out: Cytotoxity Assay (EC50)
Method: (§1) In order to roughly assess the cytotoxicity of the compounds of formula 1, several such compounds were tested in the MTT Cellular Cytotoxicity Assay described below.
(§2) The MTT [3-(4,5-dimethylthiazol-2yl)-2,5-diphenyl tetrazolium bromide) assay is based on cleavage of tetrazolium bromide by metabolically active cells, resulting in a highly quantitative blue color. This assay has been previously described (1) but has been optimized for the purposes of the testing reported herein.
(§3) Cells (100µl) are plated in microtest plate wells at a concentration of 10^5 cells per ml in the presence of varying concentrations of inhibitor. The cells are incubated at 37°C in a humidified CO2 incubator. […] After 4 hours additional incubation at 37°C, 60µl of Triton-X is added to each well and thoroughly mixed to aid the solubilization of the crystals. Absolute ethanol (5µl) is added to each well and the resulting mixture is incubated for 30 minutes at 60°C and immediately read on a plate reader (Dynatech) at a wavelength of 570nm.
(§4) Data from this assay are used to generate a nonlinear regression analysis, which yields the EC50.

[3] = MTT Assay for Cellular Cytotoxicity; format: cell-based, human; conditions: human, H9 cells, five days incubation, read-out: Cytotoxity Assay (EC50)
Method: as §1, §2, §3, §4

[4] = test system: HTLV-IIIB strain of HIV-1; test: Human T-Cell Culture Assay (syncytia formation in c8166 cells); format: cell-based; conditions: Human immunodeficiency virus 1, IIIB, 96 h, syncytia four days after virus challenge
Method: In order to confirm that compounds which are active in the RT Assay also have the ability to inhibit HIV-1 replication in a living system, several compounds of formula I were also tested in the Human T-Cell Culture Assay described below.
Formation of syncytia is a feature of in vitro cultures of CD4+ T-cells infected with HIV-1. In this assay, T-cells are treated with a putative replication inhibiting compound and then infected with HIV-1. After incubation the culture is checked for the formation of syncytia. The absence or reduction is the number of syncytia is used as a measure of the test compound's ability to inhibit HIV replication.
The target cells, designated c8166, are a subclone of human lymphoma cells of T-cell origin and are established at an initial density of 5x10^4 per 100 ul in RPMI 1640 (+ 10% fetal bovine serum) culture medium in 96 well flat bottom plates. A selected amount of test compound, dissolved in DMSO is included. After 24 hours, 50-100 TCID50's (the dose that results in induced effect in 50% of test cultures) of the HTLV-IIIB strain of HIV-1 (2) are innoculated into each culture. Control cultures receive compound or virus only. Four days after virus challenge, cultures are visually examined for the frequency and distribution of virus-induced giant cell syncytia. The percent inhibition by the test compound is determined by comparison with control values. Confirmation of the presence or absence of virus replication is accomplished by harvesting the cell free culture fluids from all experimental groups to determine the present or absence of infectious progeny through the induction of syncytia formation in secondary human T-cell cultures after 3 days.

[5] = 10µg/ml, Table I, compounds of formula I

Row | inhibition at 10 µg/mL [1, 5] | Compound | CC50 at 120 h [3] | also measured
1 | – | Mixture of 6,11-Dihydro-2,4,6,8,11-and 6,11-dihydro-2,4,6,9,11- pentamethyl-5H-pyrido[2,3-b][1,5]benzodiazepin-5-one [Example 17] | – | RT Inhibition % @ 10µg/ml [1, 5]: 49%; CC50 [2]: 9 µM
2 | 39% | Cc1ccc2c(n1)N(C)c1cc(C)c(C)cc1N(C)C2=O [Example 15, 6,11-Dihydro-2,6,8,9,11-pentamethyl-5H-pyrido[2,3-b][1,5]benzodiazepin-5-one] | – | CC50 at 120 h ([3]; unit inferred): 18 µM
3 | 55% | CN1C(=O)c2cccnc2N(C)c2ccc(Cl)cc21 [Example 8, 8-Chloro-6,11-dihydro-6,11-dimethyl-5H-pyrido[2,3-b][1,5]benzodiazepin-5-one] | 37 µM | –
4 | 94% | CC(C)N1c2ccccc2N(C)C(=O)c2cccnc21 [Example 5, 6,11-Dihydro-6-methyl-11-methylethyl-5H-pyrido[2,3-b][1,5]benzodiazepin-5-one] | 50 µM | inhibition at 19 µM ([4]; @19µM): 100%
5 | – | CCN1c2ccccc2N(C)C(=S)c2cccnc21 [Example 22, 6,11-Dihydro-11-ethyl-6-methyl-5H-pyrido[2,3-b][1,5]benzodiazepin-5-thione] | – | inhibition at 10 µg/mL [1]: 100%; inhibition at 3 µM ([4]; @3µM): 100%
6 | 97% | CCN1c2ccccc2N(C)C(=O)c2cccnc21 [Example 2, 6,11-Dihydro-11-ethyl-6-methyl-5H-pyrido[2,3-b][1,5]benzodiazepin-5-one] | 80 µM | inhibition at 4 µM ([4]; @ 4µM): 100%
7 | 79% | CN1C(=O)c2cccnc2N(C)c2cc(C(F)(F)F)ccc21 [Example 4, 6,11-Dihydro-6,11-dimethyl-9-(trifluoromethyl)-5H-pyrido[2,3-b][1,5]benzodiazepin-5-one] | 49 µM | –
8 | 90% | CC(=O)N1c2cc(C)c(C)cc2N(C)C(=O)c2cccnc21 [Example 19, 11-Acetyl-6,11-dihydro-6,8,9-trimethyl-5H-pyrido[2,3-b][1,5]benzodiazepin-5-one] | – | CC50 at 120 h ([3]; unit inferred): 85 µM
9 | 92% | Cc1cc2c(cc1C)N(C)c1ncccc1C(=O)N2C [Example 9, 6,11-Dihydro-6,8,9,11-tetramethyl-5H-pyrido[2,3-b][1,5]-benzodiazepin-5-one] | 4 µM | –
